Format in all cases: cell-based
The test system of experiment [1] is Mu-1-Lv (ATCC CCL 64) mink lung epithelial-like cell. Put plainly: Inhibition of proliferation of cultured mink lung cells (3H-thymidine incorporation). The following applies: CCL-64 mink lung cells, 24 hours, FIG. 1. How it is done:
The cell line Mu-1-Lv (ATCC CCL 64, Rockville, MD), a mink lung epithelial-like cell, was used to detect TGF-β activity. Mul-1-Lv cells maintained by weekly passage in vitro in CMEM consisting of Eagle's minimum essential medium supplemented with 0.1 mM nonessential amino acids, 2 mM L-glutamine, 1 MM sodium pyruvate (Gibco, Grand Island, NY), and 10% heat-inactivated fetal bovine serum (FBC; HyClone Laboratoris, Logan, UT) were placed into 96-well flat-bottom microtiter plates (10,000/well; Falcon 3075) at a final volume of 200 μl/well. The plates were incubated at 37° C.+5% CO2 for 24 hours. During the last 4 hours of culture, 1 μCi of {3H} thymidine (20 μl/well, 5.0 Ci/mmol; Amersham Corp.) was added. After labeling, 100 μl/well of 10 x Trypsin-EDTA was added per well and the plates were incubated for an additional 15 min. at 37° C. Cells were harvested onto glass filters and counted in a liquid scintillation counter (LS 6800, Beckman, Fullerton, CA). Results (pg/ml of TGF-β) were calculated based on percent inhibition of thymidine incorporation compared with a rHuTGF-β1 laboratory standard.

Experiment [2] concerns human lymphocytes. As to the kind of experiment: Inhibition of human lymphocyte proliferation in response to tetanus toxoid. As to conditions: tetanus toxoid 2 LF units/ml, six days, dose-dependent, FIG. 4. The protocol: The medium employed was complete RPMI-1640, i.e., RPMI-1640 (Gibco) supplemented with 10% human pooled AB serum (Hazelton Biologics Inc., Lenexa, KS), 100 u/ml penicillin/100 μg/ml streptomycin, 2 mM L-glutamine (Gibco), 1 mM sodium pyruvate (Gibco), 1% MEM non-essential amino acids (Gibco, 100x), 25 mM HEPES (Gibco), and 1% Nutridoma (Boehringer Manheim).
Heparinized venous blood (10 u/ml; bovine lung, Upjohn) was mixed with an equal volume of isotonic saline. Approximately 30 ml of the diluted blood was layered over 15 ml of lymphocyte separation medium (LSM, Organon Technika) in […] conical polypropylene centrifuge tubes (Falcon Plastics). The tubes were centrifuged for 40 min. at 400× g at 22° C. […]
To each of sextuplicate wells of a 96-well flat-bottom microtiter plate (Falcon Plastics) was added 100 μl of the cell suspension. […] The filter discs were dried and suspended in 2 ml of liquid scintillation cocktail (Econofluor, New England Nuclear) in mini-scintillation vials and incorporated radioactivity was determined by liquid scintillation spectrophotometry. Data were expressed as mean counts per min. of the quadruplicate samples, where the cpm of the media control was substrated from the cpm of the stimulated sample.

Experiment [3] has as its system human lymphocytes. Put plainly: Inhibition of human lymphocyte proliferation in response to PHA-P. As to conditions: PHA-P 1 μg/ml, three days, dose-dependent, FIG. 6.
Experiment [4] has as its system human lymphocytes. As to the kind of experiment: Inhibition of human lymphocyte proliferation in response to PMA. The following applies: PMA 40 ng/ml, three days, dose-dependent, FIG. 5.

Where no end group is shown, it is not given here.

For the substance CVRQLYIDFRKDLGWK [free polypeptide], the “cpm incorporated (activity) as a function of the reciprocal of dilution” value in experiment [1] was “comparable, i.e., low at the low dilution level and high at the high dilution levels”.

For “TGF-β1: mature, full-length transforming growth factor-β1”, the “inhibition of proliferation of human lymphocytes in response to tetanus toxoid” value in the experiment on human lymphocytes [2] is listed as “also exhibits this dose-dependent effect”. In the experiment with human lymphocytes [3], the “inhibition of proliferation of human lymphocytes in response to PHA-P” value is “also exhibits this dose-dependent effect”. In the experiment on human lymphocytes [4], the “inhibition of proliferation of human lymphocytes in response to PMA” value is given as “also exhibits this dose-dependent effect”.

Values taken from patent US5118791A, “Biologically active polypeptides based on transforming growth factor-β” (Genentech, Inc., priority 1991, dated 1992).
